In ChEMBL document CHEMBL5465560, “Selectivity Literature for EUbOPEN Chemogenomic Library” (2024):
Residue numbers refer to the chain shown, from its start. Values belong to the compound of their own block, whether it stands above or below them.

Experiments:
[1] = molecular target: Activin receptor type-1-like (Homo sapiens) (UniProt P37023); conditions: at 10 µM
[2] = molecular target: Ribosomal protein S6 kinase alpha-2 (Homo sapiens) (UniProt Q15349); assay: Selectivity interaction (ActivX KiNativ screen (kinase selectivity in THP-1 cell lysates)) EUB0000639a RPS6KA2; format: subcellular; conditions: lysate, at 1 µM
Ribosomal protein S6 kinase alpha-2 (Homo sapiens), sequence (Q15349 whole entry): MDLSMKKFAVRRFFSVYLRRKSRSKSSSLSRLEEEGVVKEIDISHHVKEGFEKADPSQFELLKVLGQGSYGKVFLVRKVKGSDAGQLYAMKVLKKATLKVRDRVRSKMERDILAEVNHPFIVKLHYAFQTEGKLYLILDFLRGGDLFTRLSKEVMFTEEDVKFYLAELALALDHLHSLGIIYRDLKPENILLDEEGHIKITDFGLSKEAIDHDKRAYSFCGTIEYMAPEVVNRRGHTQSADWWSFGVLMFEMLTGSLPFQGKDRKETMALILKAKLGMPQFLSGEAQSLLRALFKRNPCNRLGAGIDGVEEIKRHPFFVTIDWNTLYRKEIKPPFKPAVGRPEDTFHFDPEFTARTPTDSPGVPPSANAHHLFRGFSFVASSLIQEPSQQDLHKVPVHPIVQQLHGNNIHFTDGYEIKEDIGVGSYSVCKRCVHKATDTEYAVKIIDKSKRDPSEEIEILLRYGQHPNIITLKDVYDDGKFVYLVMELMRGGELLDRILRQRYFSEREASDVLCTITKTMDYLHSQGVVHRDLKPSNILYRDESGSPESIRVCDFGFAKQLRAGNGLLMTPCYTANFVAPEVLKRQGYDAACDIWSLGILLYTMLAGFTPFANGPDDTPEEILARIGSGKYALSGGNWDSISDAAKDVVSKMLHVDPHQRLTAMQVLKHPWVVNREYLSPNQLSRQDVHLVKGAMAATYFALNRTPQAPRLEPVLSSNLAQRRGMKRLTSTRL

[3] = molecular target: T1, Mitogen-activated protein kinase kinase kinase 13 (Homo sapiens) (UniProt O43283); assay: Selectivity interaction (KinomeScan (DiscoverX)) EUB0000666a MAP3K13; conditions: at 10 µM
T1 sequence (whole entry): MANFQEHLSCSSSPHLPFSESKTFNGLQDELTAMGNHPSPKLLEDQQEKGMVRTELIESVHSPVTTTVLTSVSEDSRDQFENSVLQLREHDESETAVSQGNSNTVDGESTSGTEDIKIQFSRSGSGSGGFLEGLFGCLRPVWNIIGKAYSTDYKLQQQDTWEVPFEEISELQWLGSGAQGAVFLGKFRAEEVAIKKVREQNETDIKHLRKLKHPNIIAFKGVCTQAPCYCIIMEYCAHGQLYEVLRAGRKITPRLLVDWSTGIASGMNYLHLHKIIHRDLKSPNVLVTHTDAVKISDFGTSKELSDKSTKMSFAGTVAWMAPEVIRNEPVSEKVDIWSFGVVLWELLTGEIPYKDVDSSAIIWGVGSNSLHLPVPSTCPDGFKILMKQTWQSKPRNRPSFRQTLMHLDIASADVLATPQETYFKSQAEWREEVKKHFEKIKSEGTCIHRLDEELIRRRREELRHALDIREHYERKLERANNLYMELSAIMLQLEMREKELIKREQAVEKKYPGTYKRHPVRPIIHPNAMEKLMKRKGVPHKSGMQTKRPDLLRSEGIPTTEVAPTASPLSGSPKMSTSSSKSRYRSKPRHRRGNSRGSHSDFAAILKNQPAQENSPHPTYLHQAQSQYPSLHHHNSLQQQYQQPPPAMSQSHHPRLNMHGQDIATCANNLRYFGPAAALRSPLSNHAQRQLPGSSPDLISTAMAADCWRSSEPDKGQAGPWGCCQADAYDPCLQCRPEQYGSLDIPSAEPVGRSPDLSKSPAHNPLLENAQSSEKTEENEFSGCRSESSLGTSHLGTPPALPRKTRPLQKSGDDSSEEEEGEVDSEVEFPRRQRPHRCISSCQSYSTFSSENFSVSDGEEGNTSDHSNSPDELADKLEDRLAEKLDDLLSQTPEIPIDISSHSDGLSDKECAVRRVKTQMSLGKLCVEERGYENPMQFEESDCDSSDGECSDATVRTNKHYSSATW

[4] = tested on: T2, Discoidin domain-containing receptor 2 (Homo sapiens), Q16832 [N456S]; assay: (§1) Selectivity interaction (LanthaScreen Eu Kinase Binding Assay) EUB0001632a DDR2; conditions: at 10 µM
T2 sequence (whole entry): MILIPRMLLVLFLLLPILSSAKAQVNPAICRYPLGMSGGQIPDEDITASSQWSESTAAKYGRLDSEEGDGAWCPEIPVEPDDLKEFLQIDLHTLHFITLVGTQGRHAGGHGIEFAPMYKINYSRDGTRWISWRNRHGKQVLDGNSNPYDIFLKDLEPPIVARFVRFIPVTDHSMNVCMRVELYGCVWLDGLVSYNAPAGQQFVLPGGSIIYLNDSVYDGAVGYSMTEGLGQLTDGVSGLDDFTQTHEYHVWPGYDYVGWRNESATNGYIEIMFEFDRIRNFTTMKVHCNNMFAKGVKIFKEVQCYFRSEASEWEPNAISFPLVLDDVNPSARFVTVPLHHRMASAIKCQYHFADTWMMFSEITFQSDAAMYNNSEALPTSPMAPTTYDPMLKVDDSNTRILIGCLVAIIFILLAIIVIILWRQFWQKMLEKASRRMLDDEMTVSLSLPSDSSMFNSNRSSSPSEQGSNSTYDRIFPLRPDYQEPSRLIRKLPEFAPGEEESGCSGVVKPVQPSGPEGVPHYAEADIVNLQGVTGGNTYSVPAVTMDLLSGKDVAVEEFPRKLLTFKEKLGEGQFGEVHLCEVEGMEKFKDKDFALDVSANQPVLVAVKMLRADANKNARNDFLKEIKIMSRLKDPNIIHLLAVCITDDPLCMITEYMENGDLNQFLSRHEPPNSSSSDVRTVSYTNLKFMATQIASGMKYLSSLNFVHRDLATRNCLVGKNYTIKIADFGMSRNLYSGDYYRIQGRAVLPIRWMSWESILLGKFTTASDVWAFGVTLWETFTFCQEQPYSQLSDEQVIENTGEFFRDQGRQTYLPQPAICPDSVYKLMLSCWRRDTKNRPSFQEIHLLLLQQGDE

[5] = molecular target: T3, Discoidin domain-containing receptor 2 (Homo sapiens) (UniProt Q16832); assay: as §1; conditions: at 10 µM
T3 sequence (whole entry): T2 sequence (whole entry) with S456N

Activin receptor type-1-like (Homo sapiens), sequence (P37023 whole entry): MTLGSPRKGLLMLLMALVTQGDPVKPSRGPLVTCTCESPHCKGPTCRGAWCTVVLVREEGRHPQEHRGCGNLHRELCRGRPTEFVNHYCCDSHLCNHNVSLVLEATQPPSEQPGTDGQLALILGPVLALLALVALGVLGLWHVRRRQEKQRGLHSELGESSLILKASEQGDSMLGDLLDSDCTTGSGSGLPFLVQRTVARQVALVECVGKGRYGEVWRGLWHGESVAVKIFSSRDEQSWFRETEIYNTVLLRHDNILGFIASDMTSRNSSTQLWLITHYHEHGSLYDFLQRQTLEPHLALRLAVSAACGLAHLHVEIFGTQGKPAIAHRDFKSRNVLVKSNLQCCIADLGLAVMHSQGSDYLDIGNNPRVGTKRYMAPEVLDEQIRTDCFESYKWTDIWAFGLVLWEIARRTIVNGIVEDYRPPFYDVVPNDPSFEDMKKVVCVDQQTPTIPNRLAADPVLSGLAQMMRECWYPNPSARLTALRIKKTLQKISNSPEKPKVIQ

% of control [1]: 100%
Compound: CCN(CC)CCCCNc1ncc2cc(-c3cc(OC)cc(OC)c3)c(NC(=O)NC(C)(C)C)nc2n1

% of inhibition [2]: 8%
Compound: CC[C@@H]1[C@H](F)C(=O)N[C@@H]1COc1nccc2cc(C(N)=O)c(OC)cc12 [ZIMLOVISERTIB]

Compound: O=C(NOC[C@H](O)CO)c1ccc(F)c(F)c1Nc1ccc(I)cc1F
% of control [3]: 86%

% of inhibition [4]: -20.1%
% of inhibition [5]: -2.81%
Compound: Cn1cc(-n2cnc3c(NCc4nc5cc(Cl)c(Cl)cc5[nH]4)nc(N4CCOCC4)nc32)cn1
